How the values were obtained:
NCI-H522 = experiment: Growth inhibition of human NCI-H522 cells after 48 hrs by sulforhodamine B assay; format: functional; conditions: NCI-H522, 48 h
UACC-257 = experiment: Growth inhibition of human UACC257 cells after 48 hrs by sulforhodamine B assay; format: functional; conditions: UACC-257, 48 h
PC-3 = experiment: Growth inhibition of human PC3 cells assessed as cell growth at 10 uM after 48 hrs by sulforhodamine B assay; format: functional; conditions: PC-3, 48 h, read-out: Activity
ACHN = experiment: Growth inhibition of human ACHN cells after 48 hrs by sulforhodamine B assay; format: functional
CCRF-CEM = experiment: Growth inhibition of human CCRF-CEM cells after 48 hrs by sulforhodamine B assay; format: functional
U-251 [1] = experiment: Growth inhibition of human U251 cells assessed as cell growth at 10 uM after 48 hrs by sulforhodamine B assay; format: functional; conditions: U-251, 48 h, read-out: Activity
A549 = experiment: Growth inhibition of human A549/ATCC cells assessed as cell growth at 10 uM after 48 hrs by sulforhodamine B assay; format: functional; conditions: A549, 48 h, read-out: Activity
HOP-92 = experiment: Growth inhibition of human HOP92 cells assessed as cell growth at 10 uM after 48 hrs by sulforhodamine B assay; format: functional; conditions: HOP-92, 48 h, read-out: Activity
A498 = experiment: Growth inhibition of human A498 cells after 48 hrs by sulforhodamine B assay; format: functional, cell-based; conditions: A498, 48 h
SN12C = experiment: Growth inhibition of human SN12C cells assessed as cell growth at 10 uM after 48 hrs by sulforhodamine B assay; format: functional; conditions: read-out: Activity
OVCAR-4 = experiment: Growth inhibition of human OVCAR4 cells after 48 hrs by sulforhodamine B assay; format: functional; conditions: OVCAR-4, 48 h
NCI-H23 [2] = experiment: Growth inhibition of human NCI-H23 cells assessed as cell growth at 10 uM after 48 hrs by sulforhodamine B assay; format: functional; conditions: NCI-H23, 48 h, read-out: Activity
SK-MEL-28 = experiment: Growth inhibition of human SK-MEL-28 cells assessed as cell growth at 10 uM after 48 hrs by sulforhodamine B assay; format: functional; conditions: SK-MEL-28, 48 h, read-out: Activity
SW-620 [3] = experiment: Growth inhibition of human SW620 cells after 48 hrs by sulforhodamine B assay; format: functional; conditions: SW-620, 48 h
HT-29 [4] = experiment: Growth inhibition of human HT-29 cells after 48 hrs by sulforhodamine B assay; format: functional; conditions: HT-29, 48 h
SR = experiment: Growth inhibition of human SR cells after 48 hrs by sulforhodamine B assay; format: functional
MCF7 = experiment: Growth inhibition of human MCF7 cells after 48 hrs by sulforhodamine B assay; format: functional; conditions: MCF7, 48 h
KM12 [5] = experiment: Growth inhibition of human KM12 cells assessed as cell growth at 10 uM after 48 hrs by sulforhodamine B assay; format: functional; conditions: KM12, 48 h, read-out: Activity
CAKI-1 [6] = experiment: Growth inhibition of human CAKI-1 cells after 48 hrs by sulforhodamine B assay; format: functional; conditions: CAKI-1, 48 h
KM12 [7] = experiment: Growth inhibition of human KM12 cells after 48 hrs by sulforhodamine B assay; format: functional, cell-based; conditions: KM12, 48 h
SK-MEL-5 [8] = experiment: Growth inhibition of human SK-MEL-5 cells assessed as cell growth at 10 uM after 48 hrs by sulforhodamine B assay; format: functional; conditions: SK-MEL-5, 48 h, read-out: Activity
Malme-3M = experiment: Growth inhibition of human MALME-3M cells assessed as cell growth at 10 uM after 48 hrs by sulforhodamine B assay; format: functional; conditions: read-out: Activity
HT-29 [9] = experiment: Growth inhibition of human HT-29 cells assessed as cell growth at 10 uM after 48 hrs by sulforhodamine B assay; format: functional; conditions: HT-29, 48 h, read-out: Activity
NCI-H23 [10] = experiment: Growth inhibition of human NCI-H23 cells after 48 hrs by sulforhodamine B assay; format: functional; conditions: NCI-H23, 48 h
OVCAR-5 = experiment: Growth inhibition of human OVCAR5 cells after 48 hrs by sulforhodamine B assay; format: functional; conditions: OVCAR-5, 48 h
RXF 393 = experiment: Growth inhibition of human RXF393 cells after 48 hrs by sulforhodamine B assay; format: functional; conditions: RXF 393, 48 h
CAKI-1 [11] = experiment: Growth inhibition of human CAKI-1 cells assessed as cell growth at 10 uM after 48 hrs by sulforhodamine B assay; format: functional; conditions: CAKI-1, 48 h, read-out: Activity
SK-MEL-5 [12] = experiment: Growth inhibition of human SK-MEL-5 cells after 48 hrs by sulforhodamine B assay; format: functional; conditions: SK-MEL-5, 48 h
OVCAR-8 = experiment: Growth inhibition of human OVCAR8 cells after 48 hrs by sulforhodamine B assay; format: functional; conditions: OVCAR-8, 48 h
U-251 [13] = experiment: Growth inhibition of human U251 cells after 48 hrs by sulforhodamine B assay; format: functional; conditions: U-251, 48 h
BT-549 = experiment: Growth inhibition of human BT549 cells assessed as cell growth at 10 uM after 48 hrs by sulforhodamine B assay; format: functional; conditions: BT-549, 48 h, read-out: Activity
TK-10 = experiment: Growth inhibition of human TK10 cells assessed as cell growth at 10 uM after 48 hrs by sulforhodamine B assay; format: functional; conditions: TK-10, 48 h, read-out: Activity
RPMI-8226 = experiment: Growth inhibition of human RPMI8226 cells assessed as cell growth at 10 uM after 48 hrs by sulforhodamine B assay; format: functional; conditions: RPMI-8226, 48 h, read-out: Activity
SW-620 [14] = experiment: Growth inhibition of human SW620 cells assessed as cell growth at 10 uM after 48 hrs by sulforhodamine B assay; format: functional; conditions: SW-620, 48 h, read-out: Activity
HOP-62 = experiment: Growth inhibition of human HOP62 cells assessed as cell growth at 10 uM after 48 hrs by sulforhodamine B assay; format: functional; conditions: HOP-62, 48 h, read-out: Activity
[15] = read-out: LC50 (the source's name)

## COc1cc(-c2nn(-c3cccc(NC(=O)c4cccc(C(F)(F)F)c4)c3)cc2-c2ccncc2)ccc1Cl
NCI-H522
  GI50: 1.05 µM
  LC50 (concentration killing 50% of cells): > 50 µM
  TGI: 3.85 µM
UACC-257
  GI50: 27.9 µM
  TGI: > 50 µM
UACC-257; [15]
  CC50: > 50 µM
PC-3
  growth at 10 µM: 4.39%
ACHN
  GI50: 1.89 µM
  TGI: > 50 µM
ACHN; [15]
  CC50: > 50 µM
CCRF-CEM
  GI50: 1.45 µM
  LC50: > 50 µM
  TGI: > 50 µM
U-251 [1]
  growth at 10 µM: 13.1%
A549
  growth at 10 µM: 7.4%
HOP-92
  growth at 10 µM: -5.59%
A498
  GI50: 0.687 µM
  IC50: 0.69 µM
  TGI: 2.78 µM
A498; [15]
  CC50: > 50 µM
SN12C
  growth at 10 µM: 34.4%
OVCAR-4
  GI50: 2.28 µM
  LC50 (concentration killing 50% of cells): > 50 µM
  TGI: > 50 µM
NCI-H23 [2]
  growth at 10 µM: 24.8%
SK-MEL-28
  growth at 10 µM: 32.5%
SW-620 [3]
  GI50: 2.31 µM
  TGI: > 50 µM
SW-620 [3]; [15]
  CC50: > 50 µM
HT-29 [4]
  GI50: 1.39 µM
  TGI: 20.1 µM
HT-29 [4]; [15]
  CC50: > 50 µM
SR
  GI50: 0.838 µM
  TGI: 4.59 µM
SR; [15]
  CC50: > 50 µM
MCF7
  GI50: 1.43 µM
  LC50: > 50 µM
  TGI: > 50 µM
KM12 [5]
  growth at 10 µM: 13.4%
CAKI-1 [6]
  GI50: 2.01 µM
  TGI: > 50 µM
CAKI-1 [6]; [15]
  CC50: > 50 µM
KM12 [7]
  GI50: 1.66 µM
  TGI: > 50 µM
KM12 [7]; [15]
  CC50: > 50 µM
SK-MEL-5 [8]
  growth at 10 µM: -33%
Malme-3M
  growth at 10 µM: 10.1%
HT-29 [9]
  growth at 10 µM: -12.1%
NCI-H23 [10]
  GI50: 1.56 µM
  LC50: > 50 µM
  TGI: 32.5 µM
OVCAR-5
  GI50: 4.01 µM
  LC50 (concentration killing 50% of cells): > 50 µM
  TGI: > 50 µM
RXF 393
  GI50: 0.811 µM
  LC50 (concentration killing 50% of cells): > 50 µM
  TGI: 3.15 µM
CAKI-1 [11]
  growth at 10 µM: 44.7%
SK-MEL-5 [12]
  GI50: 0.978 µM
  LC50 (concentration killing 50% of cells): 40.6 µM
  TGI: 2.47 µM
OVCAR-8
  GI50: 2 µM
  TGI: > 50 µM
OVCAR-8; [15]
  CC50: > 50 µM
U-251 [13]
  GI50: 1.62 µM
  LC50 (concentration killing 50% of cells): > 50 µM
  TGI: > 50 µM
BT-549
  growth at 10 µM: 26%
TK-10
  growth at 10 µM: 8.08%
RPMI-8226
  growth at 10 µM: -1.13%
SW-620 [14]
  growth at 10 µM: 36%
HOP-62
  growth at 10 µM: 22.9%

Source: ChEMBL document CHEMBL2440076, “New triarylpyrazoles as broad-spectrum anticancer agents: design, synthesis, and biological evaluation” (Eur J Med Chem, 2013)
